Experimental data taken from patent US12427210B2, “Compounds comprising a fibroblast activation protein ligand and use thereof” (priority 2019, dated 2025).
Read-outs that look alike come from different tables or passages of the source. Numbered stars: 1 amine (or outer) side, 2 acyl side, 3 side chain; on linkers, the order of the positions; unused ones are H or OH. Bridge positions count the residues as written; N and C are the ends. Peptide text beside a SMILES is read from it. * marks the point of attachment. X1 = O=C(O)CN1CCN(CC(=O)O)CCN(CC(=O)N2CCN(Cc3cc(C[*:1])cc(C[*:2])c3)CC2)CCN(CC(=O)O)CC1; Hexanoyl = CCCCCC(=O)*

How the values were obtained:
5-HT3 (h) = 5-HT3 (h) (Homo sapiens, UniProt P46098); assay: biochemical; details: read-out: % Inhibition of Specific Binding
5-HT3 (h), sequence (P46098 24-478): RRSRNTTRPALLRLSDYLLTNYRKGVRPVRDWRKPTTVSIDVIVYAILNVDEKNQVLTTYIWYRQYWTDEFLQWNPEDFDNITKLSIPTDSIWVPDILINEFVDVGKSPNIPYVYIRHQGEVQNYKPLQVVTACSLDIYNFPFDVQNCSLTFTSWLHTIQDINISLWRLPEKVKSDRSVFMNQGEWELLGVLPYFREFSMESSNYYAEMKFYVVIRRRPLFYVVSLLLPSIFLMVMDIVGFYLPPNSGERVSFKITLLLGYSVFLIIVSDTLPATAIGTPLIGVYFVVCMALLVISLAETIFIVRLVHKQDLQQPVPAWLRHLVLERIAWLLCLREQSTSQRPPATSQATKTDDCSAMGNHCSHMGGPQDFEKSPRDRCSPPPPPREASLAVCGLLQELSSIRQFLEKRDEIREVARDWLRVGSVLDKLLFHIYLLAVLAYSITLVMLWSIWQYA

Caspase-8 = Caspase-8 (Homo sapiens, UniProt Q14790); assay: biochemical; details: read-out: Percentage inhibition (%)
Caspase-8, sequence (Q14790 217-374 limits assumed, species assumed): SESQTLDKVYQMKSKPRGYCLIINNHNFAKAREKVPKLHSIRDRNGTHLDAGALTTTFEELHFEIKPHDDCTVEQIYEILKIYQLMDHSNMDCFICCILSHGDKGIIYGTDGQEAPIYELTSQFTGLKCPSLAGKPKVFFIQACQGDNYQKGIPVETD
Caspase-8, sequence (Q14790 385-479 limits assumed, species assumed): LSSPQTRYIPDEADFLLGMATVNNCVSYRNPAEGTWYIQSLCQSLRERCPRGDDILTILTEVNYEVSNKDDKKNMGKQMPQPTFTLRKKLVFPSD

BZD (central) = details: 10 μM
dopamine transporter (h) = dopamine transporter (h) (Homo sapiens, UniProt Q01959); assay: biochemical; details: read-out: % Inhibition of Specific Binding
[1] = target: serine protease NS3 (a.a. 3-181) from Hepatitis C virus genotype 2a (Hepatitis C virus genotype 2a, UniProt Q99IB8); assay: biochemical; details: read-out: Percentage inhibition (%)
serine protease NS3 (a.a. 3-181) from Hepatitis C virus genotype 2a, sequence (Q99IB8 1033-1211 limits assumed, other chains not shown): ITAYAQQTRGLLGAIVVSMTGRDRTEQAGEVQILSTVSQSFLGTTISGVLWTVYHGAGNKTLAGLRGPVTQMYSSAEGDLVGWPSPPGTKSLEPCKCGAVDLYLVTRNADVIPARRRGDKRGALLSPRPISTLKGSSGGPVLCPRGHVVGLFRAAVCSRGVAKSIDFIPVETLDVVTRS

Renin = target: T1, Renin (Homo sapiens, UniProt P00797); assay: biochemical; details: read-out: Percentage inhibition (%)
T1 sequence (P00797 67-406): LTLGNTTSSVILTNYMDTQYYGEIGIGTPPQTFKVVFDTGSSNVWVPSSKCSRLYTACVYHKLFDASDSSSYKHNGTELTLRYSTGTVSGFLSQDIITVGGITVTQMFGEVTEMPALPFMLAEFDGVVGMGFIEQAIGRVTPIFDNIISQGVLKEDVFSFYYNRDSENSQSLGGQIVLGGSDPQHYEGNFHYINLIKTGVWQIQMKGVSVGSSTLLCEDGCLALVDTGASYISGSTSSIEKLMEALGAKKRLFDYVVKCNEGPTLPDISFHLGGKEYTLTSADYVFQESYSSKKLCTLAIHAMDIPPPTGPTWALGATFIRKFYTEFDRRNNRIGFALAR

Cathepsin B = Cathepsin B (Homo sapiens, UniProt P07858); assay: biochemical; details: read-out: Percentage inhibition (%)
H2 (h) = H2 (h) (Homo sapiens, UniProt P25021); assay: biochemical; details: read-out: % Inhibition of Specific Binding
H2 (h), sequence (P25021 whole entry): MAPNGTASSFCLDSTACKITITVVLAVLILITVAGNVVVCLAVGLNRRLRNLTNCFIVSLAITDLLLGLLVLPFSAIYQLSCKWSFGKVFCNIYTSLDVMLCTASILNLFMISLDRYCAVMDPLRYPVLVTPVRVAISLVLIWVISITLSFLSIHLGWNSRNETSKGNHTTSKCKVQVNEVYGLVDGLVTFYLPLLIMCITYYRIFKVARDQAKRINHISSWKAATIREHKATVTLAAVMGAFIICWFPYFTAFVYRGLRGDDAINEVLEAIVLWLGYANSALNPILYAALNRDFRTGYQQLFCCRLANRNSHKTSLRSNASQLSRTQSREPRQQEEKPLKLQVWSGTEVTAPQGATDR

Caspase-9 = Caspase-9 (Homo sapiens, UniProt P55211); assay: biochemical; details: read-out: Percentage inhibition (%)
Caspase-9, sequence (P55211 1-315 limits assumed, species assumed): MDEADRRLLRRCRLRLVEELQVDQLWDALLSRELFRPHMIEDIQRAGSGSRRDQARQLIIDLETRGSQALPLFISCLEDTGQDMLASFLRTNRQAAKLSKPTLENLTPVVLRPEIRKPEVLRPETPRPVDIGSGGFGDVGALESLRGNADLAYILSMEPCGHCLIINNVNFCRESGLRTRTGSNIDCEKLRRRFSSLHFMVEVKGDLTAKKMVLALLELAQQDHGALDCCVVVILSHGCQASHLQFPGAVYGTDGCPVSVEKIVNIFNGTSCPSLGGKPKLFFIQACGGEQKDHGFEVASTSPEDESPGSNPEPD
Caspase-9, sequence (P55211 331-416 limits assumed, species assumed): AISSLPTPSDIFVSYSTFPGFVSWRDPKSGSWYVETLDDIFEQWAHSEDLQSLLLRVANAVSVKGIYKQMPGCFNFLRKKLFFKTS

COX1(h) = COX1(h) (Homo sapiens, UniProt P23219); assay: biochemical; details: read-out: % Inhibition of Specific Binding
MAO-A = MAO-A (Rattus norvegicus, UniProt P21396); assay: biochemical; details: read-out: % Inhibition of Specific Binding
MAO-A, sequence (P21396 whole entry): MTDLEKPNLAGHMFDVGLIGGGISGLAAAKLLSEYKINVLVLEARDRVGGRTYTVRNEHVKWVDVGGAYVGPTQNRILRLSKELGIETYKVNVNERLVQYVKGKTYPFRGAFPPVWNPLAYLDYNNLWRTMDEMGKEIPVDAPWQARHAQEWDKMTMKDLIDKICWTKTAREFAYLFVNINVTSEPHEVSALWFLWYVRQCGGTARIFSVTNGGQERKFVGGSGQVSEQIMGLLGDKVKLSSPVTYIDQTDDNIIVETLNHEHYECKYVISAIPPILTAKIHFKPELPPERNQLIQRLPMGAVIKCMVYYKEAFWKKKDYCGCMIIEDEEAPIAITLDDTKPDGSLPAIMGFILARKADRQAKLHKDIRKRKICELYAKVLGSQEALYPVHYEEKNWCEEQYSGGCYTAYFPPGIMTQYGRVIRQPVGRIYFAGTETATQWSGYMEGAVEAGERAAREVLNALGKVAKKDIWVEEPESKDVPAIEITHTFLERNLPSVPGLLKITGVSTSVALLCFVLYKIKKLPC

5-HT1B (h) = 5-HT1B (h) (Homo sapiens, UniProt P28222); assay: biochemical; details: read-out: % Inhibition of Specific Binding
5-HT1B (h), sequence (P28222 whole entry): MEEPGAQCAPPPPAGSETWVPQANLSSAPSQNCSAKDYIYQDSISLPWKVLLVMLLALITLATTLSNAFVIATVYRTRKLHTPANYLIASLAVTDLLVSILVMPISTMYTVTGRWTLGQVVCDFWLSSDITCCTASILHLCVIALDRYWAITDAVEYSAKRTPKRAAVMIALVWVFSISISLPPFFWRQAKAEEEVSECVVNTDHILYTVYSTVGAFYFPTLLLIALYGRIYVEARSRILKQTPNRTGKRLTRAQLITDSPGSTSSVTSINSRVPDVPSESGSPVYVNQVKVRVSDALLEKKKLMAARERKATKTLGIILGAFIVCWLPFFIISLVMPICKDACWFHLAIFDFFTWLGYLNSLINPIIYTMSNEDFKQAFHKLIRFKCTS

Cathepsin V = Cathepsin V (Homo sapiens, UniProt O60911); assay: biochemical; details: read-out: Percentage inhibition (%)
Cathepsin V, sequence (O60911 114-334, species assumed): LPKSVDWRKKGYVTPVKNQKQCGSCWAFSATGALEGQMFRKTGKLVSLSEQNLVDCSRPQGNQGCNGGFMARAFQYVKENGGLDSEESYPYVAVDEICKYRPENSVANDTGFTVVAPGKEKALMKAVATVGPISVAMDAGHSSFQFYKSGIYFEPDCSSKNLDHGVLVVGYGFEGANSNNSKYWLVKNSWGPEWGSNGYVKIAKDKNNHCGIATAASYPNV

COX2(h) = COX2(h) (Homo sapiens, UniProt P35354); assay: biochemical; details: read-out: % Inhibition of Specific Binding
Beta secretase = Beta secretase (Homo sapiens, UniProt P56817); assay: biochemical; details: read-out: Percentage inhibition (%)
Beta secretase, sequence (P56817 46-501): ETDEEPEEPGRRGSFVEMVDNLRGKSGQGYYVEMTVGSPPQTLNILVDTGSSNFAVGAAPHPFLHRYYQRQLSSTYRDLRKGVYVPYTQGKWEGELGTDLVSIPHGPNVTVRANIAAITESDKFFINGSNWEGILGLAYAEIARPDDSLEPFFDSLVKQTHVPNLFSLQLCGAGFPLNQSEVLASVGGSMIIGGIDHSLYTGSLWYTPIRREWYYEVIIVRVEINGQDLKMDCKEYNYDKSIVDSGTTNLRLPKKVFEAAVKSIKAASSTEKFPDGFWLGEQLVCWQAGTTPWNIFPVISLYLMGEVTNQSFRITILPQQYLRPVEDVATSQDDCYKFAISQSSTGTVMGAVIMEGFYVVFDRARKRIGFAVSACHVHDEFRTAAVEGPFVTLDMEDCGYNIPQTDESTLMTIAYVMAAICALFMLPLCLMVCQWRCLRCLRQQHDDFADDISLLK

CB2 (h) = CB2 (h) (Homo sapiens, UniProt P34972); assay: biochemical; details: read-out: % Inhibition of Specific Binding
Matrix metalloprotease1 = target: T2, Matrix metalloprotease1 (Homo sapiens, UniProt P03956); assay: biochemical; details: read-out: Percentage inhibition (%)
T2 sequence (P03956 100-469): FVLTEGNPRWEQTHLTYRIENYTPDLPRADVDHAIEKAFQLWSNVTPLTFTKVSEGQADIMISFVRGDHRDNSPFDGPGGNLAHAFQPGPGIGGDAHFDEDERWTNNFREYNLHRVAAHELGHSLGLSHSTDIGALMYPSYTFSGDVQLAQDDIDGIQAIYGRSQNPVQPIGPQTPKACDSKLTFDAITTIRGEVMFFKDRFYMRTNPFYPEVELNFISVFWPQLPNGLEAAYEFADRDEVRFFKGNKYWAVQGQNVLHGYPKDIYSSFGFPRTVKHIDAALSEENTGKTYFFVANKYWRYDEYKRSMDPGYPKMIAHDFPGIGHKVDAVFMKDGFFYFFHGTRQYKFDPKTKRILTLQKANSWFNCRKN

M3 (h) = M3 (h) (Homo sapiens, UniProt P20309); assay: biochemical; details: read-out: % Inhibition of Specific Binding
Cathepsin L = Cathepsin L (Homo sapiens, UniProt P07711); assay: biochemical; details: read-out: Percentage inhibition (%)
Cathepsin L, sequence (P07711 114-333, species assumed): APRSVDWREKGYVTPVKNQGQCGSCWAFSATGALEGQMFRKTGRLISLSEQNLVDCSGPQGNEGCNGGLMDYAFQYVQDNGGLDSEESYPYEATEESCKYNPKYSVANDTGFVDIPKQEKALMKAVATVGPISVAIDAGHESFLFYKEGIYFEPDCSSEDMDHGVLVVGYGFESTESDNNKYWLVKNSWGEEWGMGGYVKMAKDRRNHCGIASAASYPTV

[2] = test system: serine protease NS3 (a.a. 3-181) from Hepatitis C virus genotype 1a (mutant D168V)
Activated Protein C = Activated Protein C (Homo sapiens, UniProt P04070); assay: biochemical; details: read-out: Percentage inhibition (%)
Activated Protein C, sequence (P04070 212-461 limits assumed): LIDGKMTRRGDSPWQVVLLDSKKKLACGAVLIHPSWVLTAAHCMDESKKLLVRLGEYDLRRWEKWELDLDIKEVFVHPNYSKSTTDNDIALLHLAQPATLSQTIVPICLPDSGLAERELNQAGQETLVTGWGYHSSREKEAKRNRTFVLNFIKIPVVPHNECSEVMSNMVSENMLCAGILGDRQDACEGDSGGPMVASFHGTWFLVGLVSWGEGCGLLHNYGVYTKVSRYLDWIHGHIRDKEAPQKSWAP
Activated Protein C, sequence (P04070 43-197 partner limits assumed): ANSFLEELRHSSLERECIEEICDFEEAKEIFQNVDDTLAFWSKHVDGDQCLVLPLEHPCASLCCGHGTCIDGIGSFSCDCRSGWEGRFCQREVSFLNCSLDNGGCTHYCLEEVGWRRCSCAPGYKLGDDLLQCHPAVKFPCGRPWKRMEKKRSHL

Acetylcholinesterase (h) = Acetylcholinesterase (h) (Homo sapiens, UniProt P22303); assay: biochemical; details: read-out: % Inhibition of Specific Binding
Acetylcholinesterase (h), sequence (P22303 32-614): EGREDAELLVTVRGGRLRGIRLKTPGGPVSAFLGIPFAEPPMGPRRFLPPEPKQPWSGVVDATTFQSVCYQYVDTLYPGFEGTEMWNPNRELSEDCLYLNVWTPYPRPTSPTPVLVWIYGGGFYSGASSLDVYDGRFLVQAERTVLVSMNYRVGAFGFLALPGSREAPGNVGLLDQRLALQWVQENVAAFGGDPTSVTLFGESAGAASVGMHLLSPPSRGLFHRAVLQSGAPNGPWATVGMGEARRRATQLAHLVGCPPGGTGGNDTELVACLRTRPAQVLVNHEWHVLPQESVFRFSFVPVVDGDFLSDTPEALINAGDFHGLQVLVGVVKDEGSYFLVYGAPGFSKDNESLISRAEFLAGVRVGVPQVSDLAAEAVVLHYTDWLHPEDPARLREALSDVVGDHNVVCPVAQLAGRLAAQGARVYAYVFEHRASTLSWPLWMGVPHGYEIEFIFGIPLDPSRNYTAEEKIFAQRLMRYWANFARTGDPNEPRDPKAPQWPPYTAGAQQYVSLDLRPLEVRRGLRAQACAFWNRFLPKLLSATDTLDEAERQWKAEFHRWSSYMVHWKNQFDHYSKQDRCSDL

beta 2 (h) = beta 2 (h) (Homo sapiens, UniProt P07550); assay: biochemical; details: read-out: % Inhibition of Specific Binding
Deubiquitinase OTUD6B = target: T3, Deubiquitinase OTUD6B (Homo sapiens, UniProt Q8N6M0); assay: biochemical; details: read-out: Percentage inhibition (%)
T3 sequence (Q8N6M0 1-293): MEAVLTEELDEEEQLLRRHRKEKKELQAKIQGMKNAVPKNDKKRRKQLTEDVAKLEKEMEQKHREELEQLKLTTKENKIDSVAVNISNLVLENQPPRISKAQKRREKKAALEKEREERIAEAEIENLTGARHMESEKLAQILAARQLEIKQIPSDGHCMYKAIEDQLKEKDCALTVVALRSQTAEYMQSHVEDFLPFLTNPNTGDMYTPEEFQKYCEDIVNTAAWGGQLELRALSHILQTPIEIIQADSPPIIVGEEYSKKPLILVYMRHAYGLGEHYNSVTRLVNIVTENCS

[3] = test system: Ca2+ channel (L, dihydropyridine site); details: 10 μM
Cathepsin S = Cathepsin S (Homo sapiens, UniProt P25774); assay: biochemical; details: read-out: Percentage inhibition (%)
Cathepsin S, sequence (P25774 115-331): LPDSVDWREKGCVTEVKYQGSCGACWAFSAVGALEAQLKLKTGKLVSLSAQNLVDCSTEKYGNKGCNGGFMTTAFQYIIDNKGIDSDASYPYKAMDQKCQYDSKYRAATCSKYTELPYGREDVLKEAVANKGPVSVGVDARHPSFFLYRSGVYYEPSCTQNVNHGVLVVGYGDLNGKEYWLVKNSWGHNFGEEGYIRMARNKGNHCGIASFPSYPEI

## CCCCCC(=O)N[C@H]1CSCc2cc(cc(CN3CCN(C(=O)CN4CCN(CC(=O)O)CCN(CC(=O)O)CCN(CC(=O)O)CC4)CC3)c2)CSC[C@@H](C(=O)N[C@@H](CC(=O)O)C(N)=O)NC(=O)[C@H](Cc2ccccc2)NC(=O)[C@H](CCC(N)=O)NC(=O)[C@H]([C@@H](C)O)NC(=O)[C@@H]2CCCN2C(=O)[C@@H]2CCCN2C1=O [Compound 3BP-3407, Hex-[Cys(tMeBn(DOTA-PP))-Pro-Pro-Thr-Gln-Phe-Cys]-Asp-NH2] (Hexanoyl-CPPTQFCD-NH2; linker 1-7 via X1)
5-HT3 (h)
  inhibition at 10 µM: 2%
Caspase-8
  inhibition at 1 µM: 0%
  inhibition at 10 µM: 0%
BZD (central)
  % Inhibition of Specific Binding: −9%
Dopamine transporter (h)
  inhibition at 10 µM: 12%
[1]
  inhibition at 1 µM: 0%
  inhibition at 10 µM: -2%
Renin
  inhibition at 1 µM: -1%
  inhibition at 10 µM: 3%
Cathepsin B
  inhibition at 1 µM: 26%
  inhibition at 10 µM: 36%
H2 (h)
  inhibition at 10 µM: -5%
Caspase-9
  inhibition at 1 µM: 5%
  inhibition at 10 µM: 8%
COX1(h)
  inhibition at 10 µM: 10%
MAO-A
  inhibition at 10 µM: -5%
5-HT1B (h)
  inhibition at 10 µM: -11%
Cathepsin V
  inhibition at 1 µM: 1%
  inhibition at 10 µM: -18%
COX2(h)
  inhibition at 10 µM: -14%
Beta secretase
  inhibition at 1 µM: -8%
  inhibition at 10 µM: -5%
CB2 (h)
  inhibition at 10 µM: 2%
Matrix metalloprotease1
  inhibition at 1 µM: -1%
  inhibition at 10 µM: 2%
M3 (h)
  inhibition at 10 µM: 10%
Cathepsin L
  inhibition at 1 µM: 3%
  inhibition at 10 µM: 6%
[2]; 1 μM
  Percentage inhibition (%): 1%
[2]; 10 μM
  Percentage inhibition (%): −68%
Activated Protein C
  inhibition at 1 µM: 5%
  inhibition at 10 µM: 8%
Acetylcholinesterase (h)
  inhibition at 10 µM: -6%
Beta 2 (h)
  inhibition at 10 µM: 4%
Deubiquitinase OTUD6B
  inhibition at 1 µM: 2%
  inhibition at 10 µM: 15%
[3]
  % Inhibition of Specific Binding: 42%
Cathepsin S
  inhibition at 1 µM: 3%
  inhibition at 10 µM: 18%

## CCCCCC(=O)N[C@H]1CSCc2cc(CSCCNC(=O)CN3CCN(CC(=O)O)CCN(CC(=O)O)CCN(CC(=O)O)CC3)cc(c2)CSC[C@@H](C(=O)O)NC(=O)[C@H](Cc2ccccc2)NC(=O)[C@H](CCC(N)=O)NC(=O)[C@H]([C@@H](C)O)NC(=O)[C@@H]2CCCN2C(=O)[C@@H]2CCCN2C1=O [Compound 3BP-3554, Hex-[Cys(tMeBn(DOTA-AET))-Pro-Pro-Thr-Gln-Phe-Cys]-OH]
5-HT3 (h)
  inhibition at 10 µM: 4%
Caspase-8
  inhibition at 1 µM: 0%
  inhibition at 10 µM: -3%
BZD (central)
  % Inhibition of Specific Binding: 5%
Dopamine transporter (h)
  inhibition at 10 µM: 7%
[1]
  inhibition at 1 µM: -13%
  inhibition at 10 µM: -40%
Renin
  inhibition at 1 µM: 0%
  inhibition at 10 µM: -1%
Cathepsin B
  inhibition at 1 µM: 1%
  inhibition at 10 µM: 2%
H2 (h)
  inhibition at 10 µM: -16%
Caspase-9
  inhibition at 1 µM: -1%
  inhibition at 10 µM: -2%
COX1(h)
  inhibition at 10 µM: 8%
MAO-A
  inhibition at 10 µM: -25%
5-HT1B (h)
  inhibition at 10 µM: 8%
Cathepsin V
  inhibition at 1 µM: -1%
  inhibition at 10 µM: -1%
COX2(h)
  inhibition at 10 µM: -22%
Beta secretase
  inhibition at 1 µM: 1%
  inhibition at 10 µM: 7%
CB2 (h)
  inhibition at 10 µM: -5%
Matrix metalloprotease1
  inhibition at 1 µM: 1%
  inhibition at 10 µM: -7%
M3 (h)
  inhibition at 10 µM: 1%
Cathepsin L
  inhibition at 1 µM: 0%
  inhibition at 10 µM: -6%
[2]; 1 μM
  Percentage inhibition (%): −39%
[2]; 10 μM
  Percentage inhibition (%): −372%
Activated Protein C
  inhibition at 1 µM: -11%
  inhibition at 10 µM: 1%
Acetylcholinesterase (h)
  inhibition at 10 µM: 1%
Beta 2 (h)
  inhibition at 10 µM: 8%
Deubiquitinase OTUD6B
  inhibition at 1 µM: 0%
  inhibition at 10 µM: 0%
[3]
  % Inhibition of Specific Binding: 54%
Cathepsin S
  inhibition at 1 µM: -10%
  inhibition at 10 µM: -23%
